Source: patent US20130309306A1, “INTRAPULMONARY BENZODIAZEPINE FOR THE TREATMENT AND PREVENTION OF SEIZURES” (priority 2010, published 2013)
Marks after values point to notes of the source that are not given here.

How the values were obtained:
PTZ-induced convulsions = PTZ-induced convulsions in mice (PTZ 80 mg/kg i.p.); type: in vivo
Description: (§1) Male NIH Swiss mice (22-30 g) were kept in a vivarium under controlled environmental conditions (temperature, 22-26° C.; humidity, 40-50%) with an artificial 12-h light/dark cycle. Wood chips were used in all cages. Experiments were performed during the light phase of the light/dark cycle after a minimum 30-min period of acclimation to the experimental room. The animal facilities were fully accredited by the Association for Assessment and Accreditation of Laboratory Animal Care. All studies were performed under protocols approved by the Animal Care and Use Committee of the University of California, Davis in strict compliance with the Guide for the Care and Use of Laboratory Animals of the National Research Council (National Academy Press, Washington, D.C.).
(§2) Intratracheal administration of midazolam was carried out as described by Oka et al. (2006). In brief, mice were briefly anesthetized using isoflurane anesthesia (4% isoflurane). The animals were immediately placed on a surgical board held at a 60° angle. The animal's mouth was kept open by hanging the upper incisors on a hook to facilitate detection of the epiglottis. An operating light was used to illuminate the view of the pharynx after displacement of the tongue with a spatula. A syringe fitted with a blunted 24-gauge/25-mm was pushed against the soft palate to enter the trachea past the vocal cords. When the tracheal cartilage ring is felt, the needle is considered properly placed within the tracheal lumen. The needle was inserted almost to the bottom of the trachea. When the animals began to show signs that the anesthesia was waning, the liquid sample was gently injected at a dose volume of 0.25 ml/kg. After the injection of solution, air (1 ml syringe) was blown inside the lungs to uniformly distribute the drug in the lungs. Following the injection, the needle was gently removed and animal was held vertically for 2 min to facilitate the downward movement of liquid in the lungs. The animal was allowed 10 min to recover fully from the anesthesia as confirmed by normal spontaneous exploratory behavior. Seizure testing then commenced. For each of the seizure tests, we verified that there was no residual effect of the anesthetic on responsiveness.
PTZ was administered intraperitoneally at a dose of 80 mg/kg, which causes clonic convulsions in >97% of mice (Dhir et al., 2006). […] The time of onset of myoclonic jerks, clonus and tonic extension; and the incidence of lethality was recorded.
Results are expressed as mean±S.E.M.; the significance of the difference in the responses of treatment groups with respect to control is based on one-way analysis of variance (ANOVA) followed by specific post-hoc comparisons using Tukey's test. Differences were considered statistically significant when the probability of error was less than 0.05 (P<0.05). Control values in the threshold tests were the mean threshold values for vehicle-treated groups.

PTZ-induced seizures = assay: PTZ seizure threshold test in mice (intravenous PTZ infusion), Example 1; type: in vivo
Description: as §1, §2
The thresholds for various behavioral seizure stages induced by the GABA receptor antagonists PTZ and picrotoxin were determined by infusing the convulsant drugs via a 27 gauge-¾ inch “butterfly” needle inserted into the lateral tail vein. The needle was secured to the tail vein by a narrow piece of adhesive tape and the animal was permitted to move freely inside an inverted 2 litre glass beaker with free aeration from the top. PTZ (10 mg/ml) (Akula et al., 2008), and picrotoxin (1 mg/ml) (Chan et al., 2006) was infused at a constant rate of 0.5 ml/min using a Beckton Dickinson (1 ml) syringe mounted on an infusion pump (Model ‘11’ plus syringe pump; Harvard Apparatus, Holliston, Mass., USA). The syringe was connected to the needle by polyethylene tubing. The infusion was stopped at 3 min or at the onset of tonic extension, whichever occurred first. The thresholds to the following endpoints were determined: (i) the first myoclonic jerk; (ii) the onset of generalized clonus with loss of righting reflexes; and (iii) the onset of tonic extension. Latencies were measured from the start of convulsant infusion to the onset of all these three events. The threshold value (mg/kg) for each endpoint was determined according to the following formula: (infusion duration [sec]×infusion rate [ml/min]×convulsant drug concentration [mg/ml]×1000)/(60 [sec]×weight of mouse [g]).
Results are expressed as mean±S.E.M.; the significance of the difference in the responses of treatment groups with respect to control is based on one-way analysis of variance (ANOVA) followed by specific post-hoc comparisons using Tukey's test. Differences were considered statistically significant when the probability of error was less than 0.05 (P<0.05). […]

[1] = Horizontal screen test, acute motor toxicity; type: in vivo, mice; settings: intratracheal 100 μg/kg, any time point of the time course experiment
Description: The horizontal screen test was used to assess the acute motor toxicity of intratracheal midazolam (100 μg/kg) in the time course experiment.

[2] = intraperitoneal 100 μg/kg, pretreatment 10 min
[3] = intraperitoneal 500 μg/kg, pretreatment 10 min
[4] = intraperitoneal 750 μg/kg, pretreatment 10 min
[5] = intraperitoneal 1000 μg/kg, pretreatment 10 min
[6] = intratracheal 12.5 μg/kg, pretreatment 10 min
[7] = intratracheal 25 μg/kg, pretreatment 7 min
[8] = intratracheal 25 μg/kg, pretreatment 10 min
[9] = intratracheal 50 μg/kg, pretreatment 7 min
[10] = intratracheal 50 μg/kg, pretreatment 10 min
[11] = intratracheal 100 μg/kg, pretreatment 7 min
[12] = intratracheal 100 μg/kg, pretreatment 10 min
[13] = intratracheal 200 μg/kg, pretreatment 10 min

Cc1ncc2n1-c1ccc(Cl)cc1C(c1ccccc1F)=NC2 [Midazolam, midazolam]
Mortality (PTZ-induced convulsions; [2]): 66.67* percent | Percent showing clonus (PTZ-induced convulsions; [2]): 100% | Percent showing extensor (PTZ-induced convulsions; [2]): 66.67* percent | Percent showing myoclonic jerks (PTZ-induced convulsions; [2]): 100% | Mortality (PTZ-induced convulsions; [3]): 0* percent | Percent showing clonus (PTZ-induced convulsions; [3]): 83.33% | Percent showing extensor (PTZ-induced convulsions; [3]): 0* percent | Percent showing myoclonic jerks (PTZ-induced convulsions; [3]): 100% | Mortality (PTZ-induced convulsions; [4]): 0* percent | Percent showing clonus (PTZ-induced convulsions; [4]): 33.33* percent | Percent showing extensor (PTZ-induced convulsions; [4]): 0* percent | Percent showing myoclonic jerks (PTZ-induced convulsions; [4]): 83.33% | Mortality (PTZ-induced convulsions; [5]): 0* percent | Percent showing clonus (PTZ-induced convulsions; [5]): 0* percent | Percent showing extensor (PTZ-induced convulsions; [5]): 0* percent | Percent showing myoclonic jerks (PTZ-induced convulsions; [5]): 50* percent | Mortality (PTZ-induced convulsions; [6]): 83.33% | Percent showing clonus (PTZ-induced convulsions; [6]): 100% | Percent showing extensor (PTZ-induced convulsions; [6]): 83.33% | Percent showing myoclonic jerks (PTZ-induced convulsions; [6]): 100% | Mortality (PTZ-induced convulsions; [7]): 0* percent | Percent showing clonus (PTZ-induced convulsions; [7]): 83.33% | Percent showing extensor (PTZ-induced convulsions; [7]): 0* percent | Percent showing myoclonic jerks (PTZ-induced convulsions; [7]): 100% | Mortality (PTZ-induced convulsions; [8]): 50* percent | Percent showing clonus (PTZ-induced convulsions; [8]): 100% | Percent showing extensor (PTZ-induced convulsions; [8]): 50* percent | Percent showing myoclonic jerks (PTZ-induced convulsions; [8]): 100% | Mortality (PTZ-induced convulsions; [9]): 0* percent | Percent showing clonus (PTZ-induced convulsions; [9]): 50* percent | Percent showing extensor (PTZ-induced convulsions; [9]): 0* percent | Percent showing myoclonic jerks (PTZ-induced convulsions; [9]): 66.66* percent | Mortality (PTZ-induced convulsions; [10]): 16.66* percent | Percent showing clonus (PTZ-induced convulsions; [10]): 66.66* percent | Percent showing extensor (PTZ-induced convulsions; [10]): 16.66* percent | Percent showing myoclonic jerks (PTZ-induced convulsions; [10]): 83.33% | Mortality (PTZ-induced convulsions; [11]): 0* percent | Percent showing clonus (PTZ-induced convulsions; [11]): 0* percent | Percent showing extensor (PTZ-induced convulsions; [11]): 0* percent | Percent showing myoclonic jerks (PTZ-induced convulsions; [11]): 0* percent | Mortality (PTZ-induced convulsions; [12]): 0* percent | Percent showing clonus (PTZ-induced convulsions; [12]): 50* percent | Percent showing extensor (PTZ-induced convulsions; [12]): 0* percent | Percent showing myoclonic jerks (PTZ-induced convulsions; [12]): 50* percent | Mortality (PTZ-induced convulsions; [13]): 0* percent | Percent showing clonus (PTZ-induced convulsions; [13]): 0* percent | Percent showing extensor (PTZ-induced convulsions; [13]): 0* percent | Percent showing myoclonic jerks (PTZ-induced convulsions; [13]): 0* percent | anticonvulsant activity, PTZ i.v. seizure threshold model (PTZ-induced seizures; 25 μg/kg and 50 μg/kg intratracheally, 10 minutes before intravenous PTZ (FIG. 5)): active as anticonvulsant | dose required for anticonvulsant activity, PTZ i.v. seizure threshold model (PTZ-induced seizures; administered intraperitoneally (FIG. 5)): 0.5 mg/kg | dose required for anticonvulsant activity, PTZ i.v. seizure threshold model (PTZ-induced seizures; administered intravenously, 10 minutes before intravenous PTZ (FIG. 5)): 0.1 to 0.2 mg/kg | thresholds for all seizure signs (myoclonic jerk, clonus, tonic extension) vs vehicle (PTZ-induced seizures; intraperitoneal 500, 1000, 2500 and 5000 μg/kg, pretreatment 15 min (FIG. 1A)): significant elevation | thresholds for seizure signs vs vehicle (PTZ-induced seizures; [6]): enhanced the seizure threshold for clonic but ineffective against tonic extensor phases | time of maximal effect (PTZ-induced seizures; intratracheal 100 μg/kg): 5 to 15 min | time course: threshold vs vehicle pretreated animals (PTZ-induced seizures; intratracheal 100 μg/kg, pretreatment 5, 10, 20, 40 and 60 min (FIG. 2)): elevation in threshold | thresholds for seizure signs vs vehicle (PTZ-induced seizures; intratracheal 25, 50 and 100 μg/kg, pretreatment 10 min (FIG. 1B)): effective | acute motor toxicity, horizontal screen test [1]: No motor toxicity was observed
